Read-outs that look alike come from different tables or passages of the source.
How the values were obtained:
rats [1] = details: oral; cited from earlier work
clinical [2] = details: male, human, in vivo
Method: (§1) On Day 10, the victim and perpetrator IMPs were administered simultaneously.
(§2) On the evening before each dose, participants were provided with a light snack and were required to fast from all food and drink (except water) for a minimum of 10 hours until the following morning. All study interventions were administered in the fed state, following completion of a standard breakfast (with dosing planned to occur 30 minutes after the start of the breakfast).
(§3) The PK parameters underwent a natural logarithmic transformation and were analyzed using a mixed effect modelling technique. Adjusted geometric mean ratios and 90% confidence intervals (CIs) of the ratios were obtained for each comparison. The ratio was defined as test/reference. In addition, the intraparticipant variability were also presented. […] No formal interim analyses were performed for this study.

clinical [3] = details: male, human, in vivo; remark: listed apart in the source
Method: as §1, §2, §3

OATP1B1 = target: T1, OATP1B1 (Homo sapiens, UniProt Q9Y6L6); details: in vitro, at clinically relevant concentrations; cited from earlier work
T1 sequence (Q9Y6L6 1-691): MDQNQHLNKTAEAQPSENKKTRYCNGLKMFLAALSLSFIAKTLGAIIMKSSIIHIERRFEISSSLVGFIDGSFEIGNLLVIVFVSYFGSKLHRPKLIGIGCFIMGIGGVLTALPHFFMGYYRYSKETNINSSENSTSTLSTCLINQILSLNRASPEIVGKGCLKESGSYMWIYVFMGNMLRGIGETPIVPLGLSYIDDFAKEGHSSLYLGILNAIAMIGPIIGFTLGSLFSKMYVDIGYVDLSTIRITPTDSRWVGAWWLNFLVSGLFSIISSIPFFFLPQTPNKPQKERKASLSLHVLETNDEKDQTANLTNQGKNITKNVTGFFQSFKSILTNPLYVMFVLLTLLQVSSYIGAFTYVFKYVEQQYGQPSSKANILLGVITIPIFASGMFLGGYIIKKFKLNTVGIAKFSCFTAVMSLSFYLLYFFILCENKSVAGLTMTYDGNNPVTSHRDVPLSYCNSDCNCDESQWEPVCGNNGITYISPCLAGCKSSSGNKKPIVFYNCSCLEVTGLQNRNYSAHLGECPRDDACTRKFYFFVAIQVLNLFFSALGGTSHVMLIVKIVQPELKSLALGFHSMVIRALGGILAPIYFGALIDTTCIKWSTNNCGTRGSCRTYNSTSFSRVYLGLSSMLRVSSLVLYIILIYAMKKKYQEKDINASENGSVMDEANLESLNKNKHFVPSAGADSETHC

CYP3A4 = CYP3A4 (Homo sapiens, UniProt P08684); details: in vitro; cited from earlier work
Chain of CYP3A4 (P08684 whole entry): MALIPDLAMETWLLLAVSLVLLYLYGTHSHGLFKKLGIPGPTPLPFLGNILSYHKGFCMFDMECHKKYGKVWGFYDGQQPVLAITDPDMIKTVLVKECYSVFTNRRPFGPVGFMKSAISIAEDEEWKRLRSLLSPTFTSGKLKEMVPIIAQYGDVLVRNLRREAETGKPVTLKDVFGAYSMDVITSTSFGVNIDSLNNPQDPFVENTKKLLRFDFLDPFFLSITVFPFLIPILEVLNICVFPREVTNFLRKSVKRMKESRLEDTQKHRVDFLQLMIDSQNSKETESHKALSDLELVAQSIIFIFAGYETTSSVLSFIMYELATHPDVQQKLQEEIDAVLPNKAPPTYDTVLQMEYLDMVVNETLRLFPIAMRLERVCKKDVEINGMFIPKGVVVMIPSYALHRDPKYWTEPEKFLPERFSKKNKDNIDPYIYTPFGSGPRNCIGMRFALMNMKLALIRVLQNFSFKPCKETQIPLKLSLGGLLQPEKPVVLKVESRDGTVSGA

human serum albumin = human serum albumin (Homo sapiens, UniProt P02768); details: in vitro; cited from earlier work
Chain of human serum albumin (P02768 25-609): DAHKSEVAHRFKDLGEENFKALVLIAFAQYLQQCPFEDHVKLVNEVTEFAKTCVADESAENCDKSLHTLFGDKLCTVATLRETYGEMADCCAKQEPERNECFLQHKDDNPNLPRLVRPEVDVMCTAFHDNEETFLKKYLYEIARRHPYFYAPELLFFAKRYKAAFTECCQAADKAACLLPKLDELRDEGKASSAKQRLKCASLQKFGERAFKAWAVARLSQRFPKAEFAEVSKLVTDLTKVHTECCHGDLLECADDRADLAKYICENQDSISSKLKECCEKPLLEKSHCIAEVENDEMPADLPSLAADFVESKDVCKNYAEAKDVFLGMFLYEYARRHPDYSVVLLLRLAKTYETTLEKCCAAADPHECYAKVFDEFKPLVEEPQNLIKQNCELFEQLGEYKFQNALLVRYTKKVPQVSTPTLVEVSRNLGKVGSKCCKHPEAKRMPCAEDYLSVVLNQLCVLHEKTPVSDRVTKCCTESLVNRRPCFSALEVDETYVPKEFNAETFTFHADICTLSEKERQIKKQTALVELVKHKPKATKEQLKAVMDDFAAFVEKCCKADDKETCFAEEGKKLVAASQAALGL

[4] = healthy subjects, cited from earlier work
CYP2D6 = CYP2D6 (Homo sapiens, UniProt P10635); details: in vitro; cited from earlier work
Chain of CYP2D6 (P10635 whole entry): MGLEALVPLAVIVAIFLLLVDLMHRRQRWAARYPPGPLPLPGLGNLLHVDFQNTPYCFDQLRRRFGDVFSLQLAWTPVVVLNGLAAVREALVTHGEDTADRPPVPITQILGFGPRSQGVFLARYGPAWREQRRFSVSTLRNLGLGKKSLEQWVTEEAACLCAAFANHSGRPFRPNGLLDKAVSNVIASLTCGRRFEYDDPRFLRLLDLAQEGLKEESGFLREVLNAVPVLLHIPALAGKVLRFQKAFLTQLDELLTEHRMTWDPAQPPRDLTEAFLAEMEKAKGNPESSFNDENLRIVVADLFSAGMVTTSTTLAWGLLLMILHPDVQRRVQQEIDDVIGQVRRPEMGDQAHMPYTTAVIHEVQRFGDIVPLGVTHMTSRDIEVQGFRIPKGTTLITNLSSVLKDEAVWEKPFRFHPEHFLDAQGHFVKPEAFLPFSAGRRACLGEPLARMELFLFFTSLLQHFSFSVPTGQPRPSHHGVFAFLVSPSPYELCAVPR

BCRP = target: T2, BCRP (Homo sapiens, UniProt Q9UNQ0); details: in vitro, at clinically relevant concentrations; cited from earlier work
T2 sequence (Q9UNQ0 1-655): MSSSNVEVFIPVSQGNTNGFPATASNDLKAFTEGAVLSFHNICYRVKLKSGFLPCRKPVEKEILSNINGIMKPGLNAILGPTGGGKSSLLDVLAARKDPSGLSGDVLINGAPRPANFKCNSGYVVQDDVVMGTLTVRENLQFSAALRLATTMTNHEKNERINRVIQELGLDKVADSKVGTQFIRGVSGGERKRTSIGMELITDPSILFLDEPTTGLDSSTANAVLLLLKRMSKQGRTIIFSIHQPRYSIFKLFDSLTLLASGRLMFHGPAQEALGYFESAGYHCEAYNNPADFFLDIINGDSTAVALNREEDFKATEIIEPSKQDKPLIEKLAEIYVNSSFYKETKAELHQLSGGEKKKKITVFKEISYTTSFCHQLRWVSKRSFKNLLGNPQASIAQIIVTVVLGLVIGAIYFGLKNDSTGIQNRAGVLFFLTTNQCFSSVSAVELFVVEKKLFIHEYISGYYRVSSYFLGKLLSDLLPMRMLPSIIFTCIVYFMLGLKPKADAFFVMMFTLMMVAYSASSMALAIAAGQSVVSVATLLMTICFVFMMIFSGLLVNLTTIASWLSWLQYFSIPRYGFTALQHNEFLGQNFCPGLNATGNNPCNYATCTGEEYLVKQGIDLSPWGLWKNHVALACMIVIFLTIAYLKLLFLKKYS

[5] = system: human peripheral blood lymphocytes (HPBL); details: chromosome aberration; cited from earlier work
rats [6] = details: cited from earlier work
pregnant rabbits = details: cited from earlier work
[7] = coadministration of rabeprazole

## CC(C)NC(=O)COc1cccc(-c2nc(Nc3ccc4[nH]ncc4c3)c3ccccc3n2)c1 [belumosudil, 2-{3-[4-(1H-indazol-5-ylamino)-2-quinazolinyl]phenoxy}-N-(propan-2-yl) acetamide]
Rats [1]
  dose with abnormal sperm findings and testes/epididymis organ changes in male rats: 275 mg/kg/day
  dose with adverse findings in female rats (increased pre- or post-implantation loss, decreased number of viable embryos): 275 mg/kg/day
  dose with reduced fertility in treated males or females: 275 mg/kg/day
Clinical [2]
  Tmax: 1.5 to 3 h
  increase of exposures (Cmax and AUC) following multiple dosing: 1.30-1.49 fold
Clinical [2]; 200 mg
  AUC(0-last), geometric mean: 9200 ng·h/mL
  AUC(0-tau), geometric mean: 9330 ng·h/mL
Clinical [3]
  Tmax: 1.5 to 2 h
  increase of exposures (Cmax and AUC) following multiple dosing: 1.21-1.57 fold
Clinical [3]; 200 mg
  AUC(0-last), geometric mean: 9710 ng·h/mL
  AUC(0-tau), geometric mean: 9710 ng·h/mL
  Cmax, geometric mean: 2080 ng/mL
  T1/2, geometric mean: 4.901 h
  half-life: ~5 h
OATP1B1
  OATP1B1 inhibition: inhibits
CYP3A4
  metabolism: primarily metabolized by CYP3A4 and to a lesser extent by CYP2C8, CYP2D6, and UGT1A9
Human serum albumin
  binding to human serum albumin: 99.9%
52 participants, Grade 1 (mild)
  participants reporting a TEAE: 3.8%
headache
  number of TEAEs judged related to belumosudil: 1 event
Healthy male participants, 200 mg QD
  safety and tolerability when coadministered with raltegravir, dabigatran etexilate, rosuvastatin calcium: safe and well tolerated
In vivo
  serious adverse events or TEAEs leading to withdrawal or death: No serious adverse events
[4]; coadministered with itraconazole
  effect on belumosudil exposure: no clinically meaningful effect
[4]; coadministration of omeprazole
  decrease of AUC: 47%
  decrease of Cmax: 68%
[4]; [7]
  decrease of AUC: 80%
  decrease of Cmax: 87%
[4]; coadministration of rifampin
  decrease of AUC: 72%
  decrease of Cmax: 59%
CYP2D6
  CYP2D6 inhibition: inhibitor
BCRP
  BCRP inhibition: inhibits
[5]
  genotoxicity: not genotoxic
Rats [6]
  dose with decreased follicular development in ovaries: 275 mg/kg/day
Pregnant rabbits; pregnant rabbits, period of organogenesis
  maternal exposures (AUC) with adverse developmental outcomes, times the human exposure (AUC) at the recommended dose: ≥ 0.07 times
Pregnant rabbits; rabbits, oral
  dose with embryo-fetal effects: ≥ 50 mg/kg/day
  dose with maternal toxicity (body weight loss and mortality): ≥ 125 mg/kg/day

— US20260232763A1 (Kadmon Corporation, LLC, priority 2023, published 2026)
